From BindingDB's records for PubMed 35063895 (Tokyo Medical and Dental University, 2022)
“And” between values parts separate entries of the source, which are not always exact repeats. Identical values can stand only once.

Assay: CD4 mimetic activity at gp120 in HIV-1 KP-5mvcR infected in human TZM-bl cells assessed as inhibition of viral entry by measuring reduction in RLU by single round assay

Structure (SMILES)	IC50
N=C(N)NCCCCC(=O)NCCN1CCC(NC(=O)C(=O)Nc2ccc(Cl)cc2)CC12CCCCC2 (stereo not drawn)	0.29 µM and 1.5 µM
CC1(C)CC(NC(=O)C(=O)Nc2ccc(F)nc2)CC(C)(C)N1	5.1 µM
CC1(C)CC(NC(=O)C(=O)Nc2ccc(Cl)cc2)CC(C)(C)N1 [N-(4-chlorophenyl)-N'-(2,2,6,6-tetramethylpiperidin-4-yl)-oxalamide]	0.27 µM
N=C(N)NCCCCC(=O)NCCN1CCC(NC(=O)CNc2ccc(Cl)cn2)CC1	> 100 µM
N=C(N)NCCCCC(=O)NCCN1CCC(NC(=O)C(=O)Nc2cncc(F)c2)CC12CCCCC2 (stereo not drawn)	> 100 µM
COCCOCCOCCOCCOCCOCCOCCOCCOCCOCCOCCOCCNC(=O)CCC(=O)N[C@@H](CCCNC(=N)N)C(=O)NCCN1CCC(NC(=O)C(=O)Nc2ccc(Cl)cc2)CC12CCCCC2 (stereo partly drawn)	6.7 µM
COCCOCCOCCOCCOCCOCCOCCOCCOCCOCCOCCOCCNC(=O)CCC(=O)N[C@@H](CCCNC(=N)N)C(=O)NCCN1CCC(NC(=O)C(=O)Nc2ccc(F)nc2)CC12CCCCC2 (stereo partly drawn)	> 100 µM
N=C(N)NCCCCC(=O)NCCN1CCC(NC(=O)C(=O)Nc2ccc(Cl)cn2)CC1	> 100 µM
